Data: patent US20250295725A1, “BONE TARGETED TREATMENT IN OSTEOGENESIS IMPERFECTA” (PURDUE RESEARCH FOUNDATION, priority 2022, published 2025)

How the values were obtained:
Assay type in all cases: in vivo
[1] = test system: Colla2^oim mouse model of type 1(+/−) OI; assay: Fracture callus mineralization by MicroCT after stabilized midshaft femur fracture (osteotomy), type 1 OI mice
Procedure: (§1) After reaching skeletal maturity, 12 weeks old female mice underwent a stabilized midshaft femur fracture model via an osteotomy. Type 1 and Type 3 OI mice were treated twice a week for 5 weeks and 6 weeks respectively post fracture. Fracture callus mineralization was evaluated via quantification of high resolution MicroCT(scanco) images of the fracture callus.
After reaching skeletal maturity, 12 weeks old mice underwent a stabilized midshaft femur fracture model via an osteotomy. Type 1 OI mice were treated daily subcutaneously for 5 weeks post fracture. Fracture callus mineralization was evaluated via quantification of high resolution MicroCT(scanco) images of the fracture callus. In some instances, mice were dosed (daily) with 38 nmol/kg/d of Compound 4, Compound 3, or PBS vehicle control.
as §1, with “maturity” for “maturity,”, “old” for “old female”, “1” for “1 and Type 3”, “daily subcutaneously” for “twice a week”, “weeks” for “weeks and 6 weeks respectively”
(§2) In vivo experiments were conducted in heterozygous and homozygous Colla2^oim (Type 1 OI (+/−) and Type 3 OI (−/−)) mice of both genders. After reaching skeletal maturity, 12 weeks old female and/or male mice underwent a stabilized midshaft femur fracture model via an osteotomy. OI mice were subcutaneously treated (with saline control or a compound provided herein, such as Ab46-D-Glu20) twice a week 5 or 6 weeks post fracture. Following a 5-week study in heterozygous mice and 6-week in homozygous mice, fracture callus mineralization/densities were measured using quantification of high resolution MicroCT(scanco) images of the fracture callus.

[2] = test system: Colla2^oim mouse model of type 1(+/−) OI; assay: 4-point bend to failure of the non-fractured contralateral femurs, type 1 OI mice
Procedure: FIGS. 11 and 12 show the impact of treatment with Compound 1 on bone strength in a Colla2^0im mouse model of type!(+/−) OI. 12 week old female mice underwent a stabilized midshaft femur fracture model via an osteotomy. Type 1 OI mice were treated twice a week for 5 weeks post fracture. Bone strength was evaluated via 4-point bend to failure of the non-fractured contralateral femurs. The max load (FIG. 11) evaluates the max load the femur withstood prior to fracture in the biomechanical evaluation. Work to fracture (FIG. 12) evaluates the total amount of energy the femur adsorbed prior to fracture in the biomechanical evaluation. Bone targeted anabolic treatment dramatically improves bone strength in the contralateral femurs.
FIGS. 19 and 20 show the impact of treatment with Compound 3 on bone strength in a Colla2^oim mouse model of type 1(+/−) OI. 12 week old female mice underwent a stabilized midshaft femur fracture model via an osteotomy. Type 1 OI mice were treated daily subcutaneously for 5 weeks post fracture. Bone strength was evaluated via 4-point bend to failure of the non-fractured contralateral femurs. The max load (FIG. 19) evaluates the max load the femur withstood prior to fracture in the biomechanical evaluation. Work to fracture (FIG. 20) evaluates the total amount of energy the femur adsorbed prior to fracture in the biomechanical evaluation. Bone targeted anabolic treatment dramatically improves bone strength in the contralateral femurs.

[3] = test system: Colla2^oim mouse model of type 1(+/−) OI; assay: 4-point bend to failure of the fractured femurs, 12 week old type 1 OI mice; conditions: for increase in max load it takes a bone to fracture as compared to control: fractured femurs, daily subcutaneously 38 nmol/kg/d for 5 weeks, Type 1 OI mice treated (FIG. 18)
Procedure: (§3) FIGS. 13 and 14 show the impact of treatment with Compound 1 on bone fracture stiffness in a Colla2^oim mouse model of type 3(−/−) and type 1(−/+) osteogenesis Imperfecta. After reaching skeletal maturity, 12 weeks old female mice underwent a stabilized midshaft femur fracture model via an osteotomy and type 1 and Type 3 OI mice were treated twice a week for 5 and 6 weeks respectively post fracture. Fracture strength was evaluated via 4-point bend to failure of the fractured femurs. Modulus evaluates the stiffness of the femur during the biomechanical evaluation. A low stiffness is indicative of brittleness that leads to leads to future fractures. The improvement in stiffness that occurred in the fracture callus are indicative of a healthier bone that is less brittle and will be less likely to fracture in the future. In some instances, low bone stiffness is indicative of brittleness in the bone, such as being associated with higher risk of fracture. In some instances, higher bone stiffness is indicative of healthier bone, such as bone that is less brittle and less prone to fracture. In some instances, the majority of the compound localized into the fracture callus (e.g., due to the large amounts of exposed hydroxyapatite at the fracture site and that DE20 can bind to hydroxyapatite via chelation of the calcium component). In some instances, the elevated sites of resorption throughout the OI type 3 skeleton also had some moderate accumulation (e.g., which was responsible for the non-fracture skeletal improvements observed in FIGS. 13 and 14).
After reaching skeletal maturity, 12 weeks old female mice underwent a stabilized midshaft femur fracture model via an osteotomy. Type 1 and Type 3 OI mice were treated twice a week for 5 weeks and 6 weeks respectively post fracture. Fracture strength was evaluated via 4-point bend to failure of the fractured femurs. The contralateral untreated femurs are presented here to show the restoration to previous non-fracture strength during treatment. […] Further, Compound 1 increases the max load (in Newtons) it takes a bone to fracture in mice with Type 1 OI by approximately 70% (as compared to bone with saline). […]

[4] = test system: Colla2^oim mouse model of type 3(−/−) OI; assay: 4-point bend to failure of the fractured femurs, type 3 OI mice
Procedure: (§4) After reaching skeletal maturity, 12 weeks old female mice underwent a stabilized midshaft femur fracture model via an osteotomy. Type 3 OI mice were treated twice a week for 6 weeks post fracture. Fracture strength was evaluated via 4-point bend to failure of the fractured femurs. The max load evaluates the max load the femur withstood prior to fracture in the biomechanical evaluation. The contralateral untreated femurs are presented here to show the restoration to previous non-fracture strength during treatment.
as §4, with “Work to fracture” for “The max load”, “total amount of energy” for “max load”, “adsorbed” for “withstood”
as §3
After reaching skeletal maturity, 12 weeks old female mice underwent a stabilized midshaft femur fracture model via an osteotomy. Type 1 and Type 3 OI mice were treated twice a week for 5 weeks and 6 weeks respectively post fracture. Fracture strength was evaluated via 4-point bend to failure of the fractured femurs. The contralateral untreated femurs are presented here to show the restoration to previous non-fracture strength during treatment. […] Further, Compound 1 increases the max load (in Newtons) it takes a bone to fracture in mice with Type 1 OI by approximately 70% (as compared to bone with saline).

[5] = test system: Colla2^oim mouse model of type 3(−/−) OI; assay: Fracture callus mineralization by MicroCT after stabilized midshaft femur fracture (osteotomy), type 3 OI mice
Procedure: In some instances, ability of an anabolic linked to a hydroxyapatite ligand to accelerate the repair of fractures in a Type 3 OI disease state was analyzed. Type 3 is the most severe non-lethal form of OI and experiences the most fractures in the human population. In some instances, Type 3 was modeled in a Colla2oim (−/−) mouse (e.g., which is a well-established model of OI Type 3), such as described elsewhere herein (e.g., see the examples). In some instances, the compound is distally administered and accumulates locally at a fracture site.
as §1, with “Type” for “Type 1 and Type”, “week” for “week for 5 weeks and”, “weeks” for “weeks respectively”
as §1, §2

[6] = test system: Colla2^oim mouse model of type 1(+/−) OI; assay: 4-point bend to failure of the fractured femurs, 6 week old pediatric type 1 OI mice; conditions: 6 week old pediatric mice
Procedure: In some instances, OI affects children from birth and many of the fractures in an individual's life with OI occurring during adolescence. In some embodiments, the individual has pediatric OI. FIGS. 7 and 8 show the impact of treatment with Compound 1 on bone fracture strength in a Colla2^oim mouse model of type 1(+/−) OI. 6 week old pediatric Mice underwent a stabilized midshaft femur fracture model via an osteotomy. Type 1 OI mice were treated twice a week for 4 weeks post fracture. Fracture strength was evaluated via 4-point bend to failure of the fractured femurs. The max load (FIG. 7) evaluates the max load the femur withstood prior to fracture in the biomechanical evaluation. Work to fracture (FIG. 8) evaluates the total amount of energy the femur adsorbed prior to fracture in the biomechanical evaluation.

[7] = 12 weeks old mice, daily subcutaneously 38 nmol/kg/d for 5 weeks (FIG. 17)

Substance: AVSEHQLLHDKGKSIQDLIUGTFFLHHLIAEIHTAEnLATSEVSPNSeeeeeeeeeeeeeeeeeeee [Compound 3]
- improved fracture callus mineralization as compared to the saline control [1, 7]: approximately 300%
- more max load to fracture than bone in control mice ([2]; contralateral femurs, daily subcutaneously 5 weeks (FIG. 19)): approximately 10%
- higher work to fracture, non-fractured bone vs control mice ([2]; non-fractured contralateral femurs, daily subcutaneously 5 weeks (FIG. 20)): approximately 40%
- increase in max load it takes a bone to fracture as compared to control [3]: approximately 100%

Substance: AVSEHQLLHDKGKSIQDLRRRELLEKLLxKLHTAEIRATSEVSPNSeeeeeeeeeeeeeeeeeeee [Compound 1]
- improved fracture callus mineralization as compared to the saline control ([1]; 12 weeks old female mice, treated twice a week 5 weeks post fracture (FIG. 4)): approximately 50%
- force required to refracture bone ([4]; Colla2oim mouse model, mechanical testing): dramatically higher force
- more stiff (modulus) than fractured bone of control mice ([4]; Type 3 OI, fractured bone, twice a week 6 weeks (FIG. 13)): approximately 100%
- increase in max load it takes a bone to fracture as compared to saline bone ([4]; Type 3 OI, fractured femur, twice a week 6 weeks (FIG. 2, FIG. 5)): approximately 300%
- increase in work to fracture as compared to bone repaired with saline ([4]; Type 3 OI, fractured femur, twice a week 6 weeks (FIG. 3)): approximately 150%
- more stiff (modulus) than non-fractured bone of control mice ([4]; Type 3 OI, treated fractured bone vs non-fractured control bone (FIG. 13)): approximately 50%
- increase in work to fracture as compared to non-fractured bone ([4]; Type 3 OI, treated fractured femur vs non-fractured bone (FIG. 3)): approximately 70%
- radiographic healing over the control ([5]; Colla2oim mouse model): significant improvement
- improved fracture callus mineralization as compared to the saline control ([5]; Type 3 OI, 12 weeks old female mice, treated twice a week 6 weeks post fracture (FIG. 1, FIG. 4)): approximately 100%
- median microCT images of fractured bones vs saline control ([5]; fractured bones of FIGS. 4 and 5 (Type 1 and Type 3 OI), composite of 20 microCT slices (FIG. 6)): healthier and denser bone
- increase in bone volume fraction over the saline groups ([5]; mice administered compound vs saline groups): > 85%
- higher max load to fracture than saline control ([6]; twice a week 4 weeks (FIG. 7)): approximately 160%
- higher work to fracture than saline control ([6]; twice a week 4 weeks (FIG. 8)): approximately 80%
- more max load to fracture, non-fractured bone vs control mice ([2]; non-fractured contralateral femurs, twice a week 5 weeks (FIG. 11)): approximately 30%
- higher work to fracture, non-fractured bone vs control mice ([2]; non-fractured contralateral femurs, twice a week 5 weeks (FIG. 12)): approximately 40%
- more max load to fracture than fractured bone in control mice ([3]; Type 1 OI, 12 week old female mice, twice a week 5 weeks (FIG. 10)): 80%
- more max load to fracture than fractured bone in control mice ([3]; Type 1 OI, 12 week old male mice, twice a week 5 weeks (FIG. 9)): approximately 70%
- increase in max load it takes a bone to fracture as compared to bone with saline ([3]; Type 1 OI, 12 weeks old female mice, twice a week 5 weeks (FIG. 5)): approximately 70%
- more stiff (modulus) than fractured bone of control mice ([3]; Type 1 OI, fractured bone, twice a week 5 weeks (FIG. 14)): approximately 60%
- differential response between sexes (fracture strength) ([3]; Type 1 OI, male vs female mice, twice a week 5 weeks (FIGS. 9, 10)): No differential response between sexes
- more stiff (modulus) than unfractured bone of control mice ([3]; Type 1 OI, treated fractured bone vs unfractured control bone (FIG. 14)): approximately 10%

Substance: eeeeeeeeee(AEEA)4 DLTIDDSYWYRI (EEEEEEEEEEXDLTIDDSYWYRI; D-Glu targeting ligand, 4 AEEA spacer; SITE 1..10 D-glutamic acid; SITE 11 2,2-amino ethoxy ethoxy acetic acid; REPEAT 11 repeated 4 times) [Compound 4, Ln2_P3 motif with N-terminally-attached 4-mini-PEG spacer and D-glutamic acid targeting ligand]
- improved fracture callus mineralization as compared to the saline control [1, 7]: approximately 200%
- increase in max load it takes a bone to fracture as compared to control [3]: approximately 200%
